Source: US9617222B1, “Alkynyl indazole derivative and use thereof” (SENJU PHARMACEUTICAL CO., LTD., priority 2014, dated 2017)
Values after ≈ are worked out from the molar mass of the structure shown.

How the values were obtained:
[1] = test system: Human Retinal Microvascular Endothelial (hRMVE) Cells (hRMVEC); experiment: Growth inhibition of hRMVE cells under VEGF stimulation (MTT assay); type: cell-based; settings: recombinant human VEGF, 48 hours, read-out: Cell Growth Inhibition Activity
[2] = Solubility test in 0.1% phosphate buffer solution (pH 7.0); type: physicochemical; settings: for solubility: aqueous buffer, thermodynamic from solid, 0.1% phosphate buffer solution (pH 7.0), room temperature overnight
Procedure: The mixture was subjected to ultrasonic irradiation for 30 seconds, and then shaken at room temperature overnight. The resulting suspension was left at rest at room temperature for 30 minutes, then filtered through a chromatography disc (0.20 μm) to prepare a sample solution. The sample solution and the standard solution were analyzed by LC-MS (product name: ACQUITY UPLC H-CLASS SYSTEM and Xevo TQ-S, produced by Nihon Waters K.K.), and a solubility was calculated from the obtained peak area value by an external standard method.

[3] = Drug penetrating test to retina/choroid after instillation; type: in vivo, rabbit (Japanese white rabbit); settings: rabbit, 2 hours after instillation; for concentration at 2 h: Japanese white, retina/choroid, topical, 50 μL/eye of 0.25% suspension, 0.25% suspension eye drop 50 μL/eye, average ± standard deviation; for drug penetrating concentration in the retina/choroid compared with compound B: p≦0.05
Procedure: For the compounds 8, 27 and B produced in Examples, drug penetrating concentrations to retina/choroid tissues after instillation were measured. […] In order to measure the drug concentration in the retina/choroid tissues, the eye drop was administered to rabbits (Japanese white rabbit) at 50 μL/eye, the rabbits were euthanized 2 hours after instillation, and the eyeballs were excised. The excised eyeballs were frozen with liquid nitrogen, split into two parts along the equatorial plane, and then the retina/choroid tissues were sampled from the posterior eye segment. In order to extract the compound from the sampled tissues, the tissues were finely cut in methanol to prepare a lysate, and subsequently the lysate was centrifuged to collect the supernatant. To the extracted solution of the compound from the supernatant, an equivalent amount of ultrapure water was added, and the solution was filtered through a membrane filter (0.22 μm), and the filtrate was designated as a final measurement solution. The drug concentration in the filtrate was analyzed by liquid chromatography mass spectrometry (LC/MS/MS), and the compound concentration in the retina/choroid tissues was calculated from the peak area value obtained by an external standard method. Analysis conditions of LC/MS/MS are as below. For the compound concentration in the retina/choroid, null hypothesis test was carried out using JMP (registered trademark) (SAS Institute Inc.), the outlier was excluded, and then the average value±standard deviation was used.

photostability in solution (in words)	solubility in aqueous solution (in words) ([2]; aqueous solution)	SMILES	IC50 [1] [nM]	solubility [2] [µg/mL]	concentration at 2 h [3] [ng/g]	drug penetrating concentration in the retina/choroid compared with compound B [3]
		CNC(=O)c1ccccc1Sc1ccc2c(C#Cc3ccc(NCCOCCOCCOC)cc3)n[nH]c2c1 [Compound 27, 2-[(3-{[4-({2-[2-(2-methoxyethoxy)ethoxy]ethyl}amino)phenyl]ethynyl}-1H-indazol-6-yl)thio]-N-methylbenzamide]	1.2	0.48 (≈ 0.881 µM)	1.62 ± 0.68	significantly higher
		CNC(=O)c1ccccc1Sc1ccc2c(C#Cc3ccc(NC(=O)NCCOCCOCCN(C)C)cc3)n[nH]c2c1 [Compound 44, 2-{[3-({4-[3-(2-{2-[2-(dimethylamino)ethoxy]ethoxy}ethyl)ureido]phenyl}ethynyl)-1H-indazol-6-yl]thio}-N-methylbenzamide]	3	7.6 (≈ 12.7 µM)		
		CNC(=O)c1ccccc1Sc1ccc2c(C#Cc3ccc(NC(=O)OCCOCCOCCOC)cc3)n[nH]c2c1 [Compound 16, 2-[2-(2-methoxyethoxy)ethoxy]ethyl {4-[(6-{[2-(methylcarbamoyl)phenyl]thio}-1H-indazol-3-yl)ethynyl]phenyl}carbamate]	1.2	0.27 (≈ 0.459 µM)		
		CNC(=O)c1ccccc1Sc1ccc2c(C#Cc3ccc(NC(=O)NCCOCCOCCOC)cc3)n[nH]c2c1 [Compound 8, 2-[(3-{[4-(3-{2-[2-(2-methoxyethoxy)ethoxy]ethyl}ureido)phenyl]ethynyl}-1H-indazol-6-yl)thio]-N-methylbenzamide]	1.2	1 (≈ 1.7 µM)	2.6 ± 1.04	significantly higher
		CNC(=O)c1ccccc1Sc1ccc2c(C#Cc3ccc(NC(=O)NCCOCCOCCOC)cn3)n[nH]c2c1 [Compound 35, 2-[(3-{[5-(3-{2-[2-(2-methoxyethoxy)ethoxy]ethyl}ureido)pyridine-2-yl]ethynyl}-1H-indazol-6-yl)thio]-N-methylbenzamide]	3.2	4.4 (≈ 7.47 µM)		
		CNC(=O)c1ccccc1Sc1ccc2c(C#Cc3ccc(NC(=O)NCCOCCOCCNC(C)=O)cc3)n[nH]c2c1 [Compound 45, 2-[(3-{[4-(3-{2-[2-(2-acetamideethoxy)ethoxy]ethyl}ureido)phenyl]ethynyl}-1H-indazol-6-yl)thio]-N-methylbenzamide]	2.5	0.56 (≈ 0.911 µM)		
		CNC(=O)c1ccccc1Sc1ccc2c(C#Cc3ccccn3)n[nH]c2c1 [Compound B, 6-[2-(methylcarbamoyl)phenylsulfanyl]-3-[2-(pyridine-2-yl)ethynyl]indazole, reference compound]	1.6	0.084 (≈ 0.218 µM)	0.51 ± 0.1	
poor photostability	low	CNC(=O)c1ccccc1Sc1ccc2c(/C=C/c3ccccn3)n[nH]c2c1 [Compound A, 6-[2-(methylcarbamoyl)phenylsulfanyl]-3-E-[2-(pyridine-2-yl)ethenyl]indazole, reference compound]		0.045 (≈ 0.116 µM)		
		CNC(=O)c1ccccc1Sc1ccc2c(C#Cc3ccc(NC(=O)NCCOCCOCCO)cc3)n[nH]c2c1 [Compound 42, 2-[(3-{[4-(3-{2-[2-(2-hydroxyethoxy)ethoxy]ethyl}ureido)phenyl]ethynyl}-1H-indazol-6-yl)thio]-N-methylbenzamide]	1.6	3.1 (≈ 5.4 µM)		
